In patent US20020142016A1, “Stable skin care product containing a retinoid and a retinoid booster system in a dual compartment package” (priority 2000, published 2002):

Assays:
TGase I = experiment: Transglutaminase (TGase I ELISA) assay in cultured keratinocytes with retinol; assay type: cell-based; details: for IC50: Keratinocyte, concentration of booster which, with constant retinol 10^-7 M, inhibits TGase by 50%, read-out: Overall TG (IC 50); for % Inhibition Overall TG (-ROH/RE): added effect of booster+retinol induced TGase inhibition over retinol alone
[1] = Retinol stability in the presence of boosters (OD 360 nm); assay type: physicochemical; details: booster approximately 0.1%, retinol in approx. 50% aqueous ethanol, 60 hours at room temperature in the dark
Procedure: Retinol (50% in tween 80) was dissolved in approximately 50% aqueous ethanol to provide a solution giving an OD at 360nm of approximately 0.6 when measured in a 200 μl volume in a 96 well plate using a standard 96 well spectrophotometer.
Booster molecules were added at approximately 0.1% concentration and the OD 360 measured as above immediately and after 60 hours at room temperature in the dark. A correction was applied to the OD after 60 hours (divide by 0.85) to account for increased concentration of the retinol due to evaporation of solvent from the plate.

[2] = system: retinoic acid oxidation (cytochrome P450 systems); experiment: Assay for NADPH dependent retinoic acid oxidation in rat liver microsomes; assay type: biochemical; details: Sprague Dawley, pH 7.4, probe retinoic acid; for inhibition at 60 min, 100 µM: 10 μM
LRAT = biological target: T1, LRAT (Bos taurus, UniProt Q9BGL2); experiment: Assay for LRAT activity in RPE microsomes; assay type: biochemical, bovine; details: 100 μm compound
T1 construct: followed by approximately 15 pg of RPE microsomal protein; tissue W. L. Lawson Co., Lincoln, Nebr; host or cells: bovine retinal pigment epithelium microsomes
T1 sequence (Q9BGL2 1-230): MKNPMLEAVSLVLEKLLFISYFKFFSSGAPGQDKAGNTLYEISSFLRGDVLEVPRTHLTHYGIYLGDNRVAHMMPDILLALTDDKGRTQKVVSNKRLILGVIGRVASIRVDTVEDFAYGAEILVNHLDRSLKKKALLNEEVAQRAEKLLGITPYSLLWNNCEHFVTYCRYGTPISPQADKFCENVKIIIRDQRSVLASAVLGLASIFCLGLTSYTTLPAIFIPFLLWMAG

IC50 (TGase I) [µM]	FOLD INCREASE IN RATE OF RETINOL LOSS [1]	Compound	also measured
1.46	–	C[C@H]1[C@H](C)CC[C@]2(C(=O)O)CC[C@]3(C)C(=CC[C@@H]4[C@@]5(C)CC[C@H](O)C(C)(C)[C@@H]5CC[C@]43C)[C@H]12 [Urosolic Acid]	–
–	3.0	CCCCC/C=C\C/C=C\CCCCCCCC(=O)N(CCO)CCO [Linoleamide-DEA (or Linoleoyl Diethanolamide)]	% Inhibition Overall TG (-ROH/RE) (TGase I): 59%
–	–	c1ccc(-c2ccc(C(c3ccccc3)n3ccnc3)cc2)cc1 (stereo not shown) [Bifonazole]	inhibition at 60 min, 10 µM [2]: 89%; inhibition at 60 min, 100 µM [2]: 100%
134	–	CC/C=C\C/C=C\C/C=C\CCCCCCCC(=O)O [Linolenic Acid]	–
130	–	O=C(O)CCCCCCCCCCCCCCC(=O)O [Hexadecanedioic Acid]	–
4.47	–	CC(C)(C)C(=O)C(Oc1ccc(Cl)cc1)n1ccnc1 (stereo not shown) [Climbazole]	inhibition at 60 min, 10 µM [2]: 80%; inhibition at 60 min, 100 µM [2]: 92%
–	1.4	O=c1ccc2ccccc2o1 [COUMARIN]	–
6.26	–	COc1cc(NS(C)(=O)=O)ccc1Nc1c2ccccc2nc2ccccc12 [Amsacrine, reference compound]	–
–	–	Clc1ccc(COC(Cn2ccnc2)c2ccc(Cl)cc2Cl)cc1 (stereo not shown) [Econazole]	inhibition at 60 min, 10 µM [2]: 88%; inhibition at 60 min, 100 µM [2]: 100%
163	3.4	CCCCC/C=C\C/C=C\CCCCCCCC(=O)O [Linoleic Acid]	–
0.361	–	CC1(C)[C@@H](OC(=O)CCC(=O)O)CC[C@]2(C)[C@H]3C(=O)C=C4[C@@H]5C[C@@](C)(C(=O)O)CC[C@]5(C)CC[C@@]4(C)[C@]3(C)CC[C@@H]12 [Carbenoxolone, reference compound]	–
–	–	CC(C)=CCC/C(C)=C/CC/C(C)=C/CC/C(C)=C/CO [Geranyl Geraniol]	inhibition at 100 µM (LRAT): 77%
–	–	CCN(CC)CC(=O)Nc1c(C)cccc1C [Lidocaine, reference compound]	inhibition at 100 µM (LRAT): 0%
17.2	–	CCCCCCCCCCCCCC(=O)O [Myristic Acid]	–
–	–	CC(C)(C(=O)c1cccnc1)c1cccnc1 [Metyrapone (2-Methyl-1,2-di-3-Pyridyl-1-Propane]	inhibition at 60 min, 100 µM [2]: 47%
93.5	–	CC(C)=CCCC(C)=CCCC(C)=CCO [Farnesol]	inhibition at 100 µM (LRAT): 53%
–	–	CCCCCCCCCCCCCC(=O)N(C)CC(=O)O [Myristoyl Sarcosine]	inhibition at 100 µM (LRAT): 11%
–	–	CCCCC/C=C\C/C=C\CCCCCCCC(=O)NCCCN(C)C [Linoleamidopropyl Dimethylamine]	inhibition at 100 µM (LRAT): 75%

IC50 (TGase I) [µM]	FOLD INCREASE IN RATE OF RETINOL LOSS [1]	Compound	also measured
68.8	–	CC(C)CCCCCCCCCCCCCCC(=O)O [Isostearic Acid]	–
7830	1.3	CC(C)=CCC/C(C)=C/CO [Geraniol]	–
–	2.6	CCCCCCCCCCCC(=O)N(C)CC(=O)O [Lauroyl Sarcosine]	–
–	–	Clc1ccccc1C(c1ccccc1)(c1ccccc1)n1ccnc1 [Clotrimazole]	inhibition at 60 min, 10 µM [2]: 76%
–	3.1	CC(C)=CCCC(C)=CC=O [Citral]	–
–	3.7	DAMASCONE	–
–	–	Clc1ccc(COC(Cn2ccnc2)c2ccc(Cl)cc2Cl)c(Cl)c1 (stereo not shown) [Miconazole]	inhibition at 60 min, 10 µM [2]: 74%; inhibition at 60 min, 100 µM [2]: 86%
37.5	–	CC(/C=C/C=C(\C)C(=O)O)=C\C=C\C=C(C)\C=C\C=C(/C)C(=O)O [Crocetin]	inhibition at 100 µM (LRAT): 15%
9700	–	COc1cc(C=O)ccc1O [Vanillin]	–
–	1.9	COCAMIDE DEA	–
62.9	–	O=c1c(O)c(-c2ccc(O)c(O)c2)oc2cc(O)cc(O)c12 [Quercetin]	inhibition at 60 min, 10 µM [2]: 40%; inhibition at 60 min, 100 µM [2]: 74%
–	1.4	CN1CCN(C)C1=O [Dimethyl Imidazolidinone]	% Inhibition Overall TG (-ROH/RE) (TGase I): 22%
–	–	CC(=O)c1cc2c(cc1C)C(C)(C)C(C)CC2(C)C (stereo not shown) [Tonalid]	inhibition at 100 µM (LRAT): 33%
–	1.6	CC1(C)[C@@H](O)CC[C@]2(C)[C@H]3C(=O)C=C4[C@@H]5C[C@@](C)(C(=O)O)CC[C@]5(C)CC[C@@]4(C)[C@]3(C)CC[C@@H]12 [Glycyrretinic Acid]	–
65	–	CCCCCCCC/C=C/CCCCCCCC(=O)O [Elaidic Acid]	–
–	–	CCCCC/C=C/C/C=C/CCCCCCCC(=O)NC(C)c1ccccc1 (stereo not shown) [Melinamide, reference compound]	inhibition at 100 µM (LRAT): 43%
0.185	–	CC(=O)N1CCN(c2ccc(OCC3COC(Cn4ccnc4)(c4ccc(Cl)cc4Cl)O3)cc2)CC1 (stereo not shown) [Ketoconazole]	inhibition at 60 min, 10 µM [2]: 84%; inhibition at 60 min, 100 µM [2]: 84%

Compound	IC50 (TGase I) [µM]	FOLD INCREASE IN RATE OF RETINOL LOSS [1]	also measured
Oc1cccc2cccnc12 [8 OH QUINOLINE]	–	1.5	–
CC(=O)/C=C/C1C(C)=CCCC1(C)C (stereo not drawn) [Alpha-Ionone]	–	1.3	–
